Experiments:
GA muscle nuclei = experiment: Single-nucleus RNA sequencing of GA muscle; assay type: in vivo, mouse
Experimental: Single-nucleus isolation was performed as previously described 41. GA muscles were isolated from mice immediately following euthanasia. The muscles were minced and homogenized with homogenization buffer, 0.25M sucrose and 1% BSA diluted in Mg^2+-free, Ca^2+-free, RNase-free PBS (#AM9624, Invitrogen, Grand Island, NY, USA). The homogenates were incubated with 2.5% Triton-X100/RNase-free PBS at a 1:6 ratio for five minutes. After being filtered through a 100-um strainer, samples were centrifuged at 3000×g for 10 min at 4° C., resuspended in 2% BSA/RNase-free PBS, and then filtered through a 40-μm strainer again. Nuclei were labeled by DAPI with 0.2 U/μL RNase inhibitor (#N8080119, Thermo Fisher Scientific). Labeled nuclei were sorted by FACS Aria II Cell Sorter with 70 μm nozzle (BD Biosciences, San Jose, CA, USA) into 2% BSA/RNase-free PBS with RNase inhibitor. Isolated nuclei were observed by confocal fluorescent microscope (Leica TCS SP8, Wetzlar, Germany) to confirm integrity. To adjust the optimal concentration of nuclei for the 10X Chromium system, isolated nuclei were counted and diluted or concentrated by centrifugation at 250×g for 5 min at 4° C. Single-nucleus RNA-sequencing libraries were constructed by the Chromium Single Cell 3′ reagent kit v2 (10X Genomics, Pleasanton, CA, USA) per the manufacturer's protocol. Following the library preparation, the libraries were sequenced on the NovaSeq 6000 System (Illumina, San Diego, CA, USA) and the 10x Genomics cellranger count pipeline produced 6072 single-nucleus transcriptomes (2128, 2015 and 1929 transcriptomes for Young+Vehicle, Aged+Vehicle, and Aged+GB groups) with 25453, 27,741, and 34,120 reads per nuclei, and 1018, 923, and 1061 genes per nuclei for Young+Vehicle, Aged+Vehicle, and Aged+GB groups respectively.
The single-cell feature-barcode matrices from 10x Genomics cellranger count pipeline were imported into R version 4.1.3 and processed with Seurat 4.2.0. Next, ambient RNA was corrected by SoupX package43. […] Cell cycle genes were corrected for as described in Seurat's Cell-Cycle Scoring and Regression vignette. […] All remaining single-nuclei of each sample were then processed with dimension reduction and Louvain clustering as per Seurat's standard vignette. A combined Seurat object was also created following Seurat's integration protocol as described in Seurat's scRNA-seq integration using default parameters. Dimension reduction and clustering were also performed on the combined dataset as described above. Clusters were annotated using established cell type markers. […]

[1] = test system: ovariectomized (OVX) female C57BL/6 mice; experiment: Postmenopausal (OVX, estrogen-deficient) mouse model: muscle wasting and physical activity; assay type: in vivo
Experimental: (§1) Forelimb grip strength was measured by a grip strength meter (Muromachi Kikai Co., Tokyo, Japan). Each mouse performed five trials for force measurement, and the values were normalized to body and recorded. A rotarod test was carried out by using the rotarod treadmill (Singa Technology Corporation, Taoyuan City, Taiwan). The speed was adjusted to 4 rpm for 4 sec, 10 rpm for 10 sec, 20 rpm for 20 sec, and then 40 rpm until the mice fell. Mice were familiarized with the rotarod and balance beam by running 5 min for three consecutive days before the onset of experimentation. During the experiment, each mouse performed four trials, and the average time that each rodent was able to stay on top of the rotarod treadmill was recorded. The balance beam test was used to assess subtle motor coordination and balance. After initial training, mice were given four consecutive trials where they were required to cross 60 cm of a round beam (14 mm in diameter). The time for crossing the beam and the number of hind-feet slip were recorded. Hanging endurance was determined by Kondziella's inverted hanging screen test. Mice were putted at the center of grasped wire screen (bar thickness, 2 mm; mesh, 10 mm). After inverting the wire screen, the time of sustained limb tension on the screen were recorded. A fixed maximum hanging limit of 600 seconds was used. Each trial was repeated three times at 30-min interval, the mean values were recorded.

[2] = test system: 20-month-old aged female C57BL/6 mice
Experimental: Animals were kept up to five per cage and were randomly assigned to control and experimental groups in all experiments. […] For the short-term experiment, 3-(young), 6-(adult) and 20-month-old (aged) female C57BL/6 mice were administered 12 mg/kg body weight GB (#G6910, Sigma-Aldrich, St. Louis, MO, USA) or vehicle daily by oral gavage for two months.
The noninvasive 31-item frailty index established by Whitehead et al. was used to evaluate frailty in mice (Whitehead, J. C. et al. A clinical frailty index in aging mice: comparisons with frailty index data in humans. J Gerontol A Biol Sci Med Sci 69, 621-632, doi:10.1093/gerona/glt136 (2014)). Whole assessments were conducted by blind investigators as possible. The scored items represent the aging-related deteriorations based on the criteria in clinical practice, consisting of the integument, musculoskeletal system, vestibulocochlear and auditory systems, ocular and nasal systems, digestive system, urogenital system, respiratory system, signs of discomfort, body weight and body surface temperature. Surface body temperature was determined by an infrared thermometer (Thermo Distance, Terraillon, Croissy-sur-seine, France), and grip strength was measured by the standard equipment described in the later section. The other subjective observations were scored by researchers. The scores 0, 0.5 and 1 indicated no sign of frailty, moderate defect and severe defect, respectively. For the body temperature, grip strength and body weight scoring, the average and standard deviation (STDEV) values were used as a baseline. A change within one STDEV is scored as a 0, a decreased change over one STDEV but lower than two STDEV was scored as a 0.5 and a change more than two STDEV was scored as a 1.

[3] = test system: 6-month-old female C57BL/6 mice; experiment: GB in 6-month-old adult mice (steady state): osteocalcin, myofiber CSA, grip strength; assay type: in vivo, mouse; conditions: 6-month-old female mice
Experimental: as §1
Serum was collected by cardiac puncture upon sacrifice.
The maintenance of muscle mass and strength in adulthood reduces the risk of sarcopenia and improves healthspan. Osteocalcin is necessary to maintain muscle mass and health throughout the whole life, and loss of osteocalcin after the age of 30 leads to muscle loss. Since GB increased osteocalcin in aged osteoblasts, we postulated that oral GB administration could increase osteocalcin and skeletal muscle mass in mice. In a proof-of-principle experiment, we gave GB to 6-month-old female mice equivalent to 30-year-old women for two months (FIG. 1A). […] GB administration enlarged the CSA of the tibialis anterior and soleus muscles (FIGS. 1C to 1E, p=0.021 and <0.0001, respectively) and increased forelimb grip strength (FIG. IF, p=0.036).

[4] = GB 3 and 12 mg/kg daily for two months
[5] = of 18 measurements increased by aging

## CC1C(=O)OC2C(O)C34C5CC(C(C)(C)C)C36C(OC(=O)C6O)OC4(C(=O)O5)C12O (centres unmarked) [GB, Ginkgolide B]
GA muscle nuclei; 8/14 nuclear types, GA muscle of aged mice
  reversal of aging-related changes in nucleus proportion: 57%
GA muscle nuclei; GA muscle of aged mice
  expression levels of Runx1 in myonucleus and number of aging-elicited Runx1+ Type 2b myonuclei: reduced
GA muscle nuclei; covering all 5 myonucleus subclusters altered by aging
  aging-related changes in the numbers and proportion of myonuclei: reversed
GA muscle nuclei; particularly M2 and M2-like proliferating macrophages
  number of Ptprc+ immune cells in skeletal muscle: increased
[1]; [4]
  myofiber CSA: dose-dependently restored
  skeletal muscle mass: dose-dependently restored
[1]; high-dose GB, two months
  decline of motor performance: fully reversed
  forelimb grip strength: improved
[2]; aged mice, GB 2 months vs vehicle-aged, p<0.0001
  reduction of aging-related frailty index score: 63.1%
[2]; aged mice, GB 2 months, mean±SD, vehicle-aged 0.43±0.13, young 0.01±0.01
  average frailty index score: 0.16±0.05
[2]; mouse, in vivo
  deterioration of frailty: did not observe any deterioration
[2]; [5]
  number of aging-related frailty measurements modestly attenuated: 3
  number of aging-related frailty measurements reversed: 13
[3]; GB 12 mg/kg daily oral 2 months vs vehicle, p<0.0001
  CSA of the soleus muscle: enlarged
[3]; GB 12 mg/kg daily oral 2 months vs vehicle, p=0.021
  CSA of the tibialis anterior muscle: enlarged
[3]; GB 12 mg/kg daily oral 2 months vs vehicle, p=0.036
  forelimb grip strength: increased
[3]; GB 12 mg/kg daily oral gavage 2 months vs vehicle, p=0.0114
  circulating osteocalcin: significantly higher

Reference: US20240299345A1, “GINKGOLIDE B AND ITS DERIVATIVES FOR INHIBITING AND/OR REVERSING AGING” (CHINA MEDICAL UNIVERSITY, priority 2023, published 2024)
